In patent US7256209B2, “Pyrazole derivatives and diabetic medicine containing them” (Ajinomoto Co., Inc., priority 2000, dated 2007):

Columns and labels:
[1] = system: Renal brush border membrane glucose uptake; test: Inhibiting activity on renal brush border membrane glucose uptake; assay type: biochemical; conditions: rat renal brush border membrane, sodium-dependent 14C-D-glucose uptake
Experimental: The test compound was dissolved in 100 mM Mannitol-10 mM HEPES/Tris (pH 7.4) and solutions having various concentrations were prepared.
Renal brush border membrane was prepared from a rat kidney and the solutions of the test compounds were added thereto and the product was incubated at 37° C. for 30 minutes. Then ^14C-D-glucose was added and the mixture was incubated for 1 minute. After tie reaction of glucose uptake was stopped by a solution containing 1 mM of phloridzin, the activity of ^14C-D-glucose on ^14C was measured by a liquid scintillation counter. The intensity of inhibition was calculated by subtracting the amount of taken glucose that is independent on sodium from the amount of taken glucose of the object samples.

[2] = system: male Wistar rats; test: Activity on rat's sugar urine excretion; assay type: in vivo; conditions: for The amount of excreted glucose in urine: 100 mg/kg oral, urine collected 24 hours, per day and individual; for activity on urinary glucose excretion as compared to Example 35 of WO01/16147 (in words): compared to Referential Example 1, Table 2; for activity on urinary glucose excretion (in words): oral administration, rat
Experimental: 5-week old male Wistar rats (purchased from Charles River Japan, Inc.) were used in the experiment after they were housed in a metabolic cage for about one week in advance. The test compounds were suspended in olive oil and 20 mg/ml solution was prepared so that the dosage given per 1 kg of the weight of the rats was 5 ml.
After the rats were not fed for 4 hours, the test compounds were orally administered to them at 11 a.m. Their urine was collected, from that taken just after the administration to that taken 24 hours after the administration and its volume was measured. Then, the concentration of glucose in urine was measured by glucose oxidase method and urinary glucose excreted per a day and an individual was calculated.

[3] = system: male Wistar rats; test: Activity on rat's sugar urine excretion; assay type: in vivo; conditions: for The amount of excreted glucose in urine: urine collected 24 hours, per day and individual

Compound | The amount of excreted glucose in urine [2] [mg] | activity on urinary glucose excretion as compared to Example 35 of WO01/16147 (in words) [2] | activity on urinary glucose excretion (in words) [2] | other results
CSc1ccc(Cc2c(O[C@@H]3O[C@H](CO)[C@@H](O)[C@H](O)[C@H]3O)n[nH]c2C(F)(F)F)cc1 [Example Compound 1, 4-((4-methylthiophenyl)methyl)-5-(trifluoromethyl)-1H-pyrazole-3-O-β-D-glucopyranoside] | – | – | – | Inhibition intensity (concentration of the test compounds) ([1]; 10 μM test compound): 84% (10 μM)
CCc1ccc(Cc2c(O[C@@H]3O[C@H](C(=O)O)[C@@H](O)[C@H](O)[C@H]3O)n[nH]c2C(F)(F)F)cc1 [Example Compound 2, 4-((4-ethylphenyl)methyl)-5-(trifluoromethyl)-1H-pyrazole-3-yl-O-β-D-glucopyranoside uronic acid] | – | – | – | Inhibition intensity (concentration of the test compounds) ([1]; 100 μM test compound): 30% (100 μM)
CCc1ccc(Cc2c(O[C@@H]3O[C@H](COC(=O)OC)[C@@H](O)[C@H](O)[C@H]3O)nn(Cc3ccccc3)c2C(F)(F)F)cc1 [Example Compound 4, 4′-[(4′-ethylphenyl)methyl]-1′-benzyl-5′-trifluoromethyl-1H-pyrazole-3′-O-(6-carbomethoxy)-β-D-glucopyranoside] | 27 | – | – | –
CCc1ccc(Cc2c(O[C@@H]3O[C@H](COC(=O)OC)[C@@H](O)[C@H](O)[C@H]3O)nn(Cc3ccc(OC)cc3)c2C(F)(F)F)cc1 [Example Compound 6, 4′-[(4′-ethylphenyl)methyl]-1′-[(4′-methoxyphenyl)methyl]-5′-trifluoromethyl-1H-pyrazole-3′-O-(6-carbomethoxy)-β-D-glucopyranoside] | 59 | – | – | –
CCc1ccc(Cc2c(O[C@@H]3O[C@H](COC(=O)OC)[C@@H](O)[C@H](O)[C@H]3O)nn(-c3ccccc3)c2C(F)(F)F)cc1 [Example Compound 8, 4′-[(4′-ethylphenyl)methyl]-1′-phenyl-5′-trifluoromethyl-1H-pyrazole-3′-O-(6-carbomethoxy)-β-D-glucopyranoside] | 4.1 | – | – | –
COC(=O)OC[C@H]1O[C@@H](Oc2nn(C(C)C)c(C)c2Cc2ccc(OC)c(F)c2)[C@H](O)[C@@H](O)[C@@H]1O [Example Compound 10, 4′-[(3′-fluoro-4′-methoxyphenyl)methyl]-1′-isopropyl-5′-methyl-1H-pyrazole-3′-O-(6-carbomethoxy)-β-D-glucopyranoside] | 734 | much higher activity | particularly high activity | –
COC(=O)OC[C@H]1O[C@@H](Oc2nn(C(C)C)c(C)c2Cc2ccc(C)c(F)c2)[C@H](O)[C@@H](O)[C@@H]1O [Example Compound 14, 4′-[(3′-fluoro-4′-methylphenyl)methyl]-1′-isopropyl-5′-methyl-1H-pyrazole-3′-O-(6-carbomethoxy)-β-D-glucopyranoside] | 918 | much higher activity | particularly high activity | –
CCc1ccc(Cc2c(O[C@@H]3O[C@H](COC(=O)OC)[C@@H](O)[C@H](O)[C@H]3O)nn(C(C)C)c2C)cc1 [Example Compound 16, 4′-[(4-ethylphenyl)methyl]-1′-isopropyl-5′-methyl-1H-pyrazole-3′-O-(6-carbomethoxy)-β-D-glucopyranoside] | 598 | much higher activity | particularly high activity | The amount of excreted glucose in urine ([3]; 3 mg/kg oral): 28 mg; The amount of excreted glucose in urine ([3]; 10 mg/kg oral): 263 mg; The amount of excreted glucose in urine ([3]; 30 mg/kg oral): 294 mg; activity on urinary glucose excretion (in words) ([3]; orally administered in lower doses such as 30 mg/kg or lower): still has high activity
Cc1[nH]nc(O[C@@H]2O[C@H](CO)[C@@H](O)[C@H](O)[C@H]2O)c1Cc1ccc(OC(C)C)cc1 [Referential Example Compound 1, 4-[(4-isopropoxyphenyl)methyl]-5-methyl-1H-pyrazole-3-O-β-D-glucopyranoside, reference compound] | 14 | – | – | –
